Reference: ChEMBL document CHEMBL1139001, “Alkyl-linked bis-THTT derivatives as potent in vitro trypanocidal agents” (Bioorg Med Chem Lett, 2006)

Key:
[1] = Therapeutic index (cytotoxicity/antiprotozoal activity); type: cell-based; conditions: human, KB cells; read-out: Ratio IC50
[2] = test system: KB; assay: Cytotoxicity against KB cell line; type: functional, cell-based; conditions: Homo sapiens
[3] = test system: Plasmodium falciparum; assay: Antiplasmodial activity against Plasmodium falciparum 3D7; type: functional, organism-based
[4] = test system: Trypanosoma brucei rhodesiense; assay: Antitrypanosomal activity against Trypanosoma brucei rhodesiense STIB900; type: functional, organism-based
[5] = Therapeutic index (cytotoxicity/antitrypanosomal activity); type: cell-based; conditions: human, KB cells; read-out: Ratio IC50
[6] = test system: Leishmania donovani; assay: Antiprotozoal activity against Leishmania donovani; type: functional, organism-based
[7] = Therapeutic index, ratio of cytotoxicity/antiplasmodial activity; type: cell-based; conditions: human, KB cells; read-out: Ratio IC50

Row | SMILES | selectivity ratio [1] | IC50 [2] | IC50 [3] | IC50 [4] | selectivity ratio [5] | IC50 [6] | selectivity ratio [7]
1 | CSCCC(C(=O)O)N1CSC(=S)N(CCCCCCN2CN(C(CCSC)C(=O)O)CSC2=S)C1 (stereo unspecified) | 7.3 | 52.5 µM | 14.2 µM | 2.3 µM | 41.2 | 7.26 µM | 3.7
2 | N=C(N)c1ccc(OCCCCCOc2ccc(C(=N)N)cc2)cc1 [PENTAMIDINE] |  |  |  | 0.011 µM |  |  | 
3 | CC(C)(CN1CN(C(Cc2ccccc2)C(=O)O)CSC1=S)CN1CN(C(Cc2ccccc2)C(=O)O)CSC1=S (stereo unspecified) | 0.4 | 2.21 µM | 9.56 µM | 1.04 µM | 2.1 | 5.54 µM | 0.2
4 | CC(C)(CN1CN(CCCCC(=O)O)CSC1=S)CN1CN(CCCCC(=O)O)CSC1=S | 1.1 | 8.16 µM | 9.04 µM | 2.48 µM | 3.4 | 7.27 µM | 0.9
5 | NC(=O)CC(C(=O)O)N1CSC(=S)N(CCCCCCN2CN(C(CC(N)=O)C(=O)O)CSC2=S)C1 (stereo unspecified) | > 30 | > 51.7 µM | 39.5 µM | 5.34 µM | > 10 | 19.5 µM | > 2
6 | O=C(O)CCCN1CSC(=S)N(CCCCCCN2CN(CCCC(=O)O)CSC2=S)C1 |  | 11.7 µM | 43.3 µM | 4.27 µM |  | 24.3 µM | 2
7 | CC(C)(CN1CN(CC(=O)O)CSC1=S)CN1CN(CC(=O)O)CSC1=S | 0.7 | 5.09 µM | 3.76 µM | 2.88 µM | 1.7 | 6.85 µM | 1.3
8 | COc1cc([C@@H]2c3cc4c(cc3[C@H](O)[C@H]3COC(=O)[C@H]23)OCO4)cc(OC)c1OC [PODOFILOX] |  | 0.0036 µM |  |  |  |  | 
9 | O=C(O)CCN1CSC(=S)N(CCCCCCN2CN(CCC(=O)O)CSC2=S)C1 | 5.6 | 12.3 µM | 13.1 µM | 0.56 µM | 21.8 | 2.18 µM | 0.9
10 | O=C(O)CN1CSC(=S)N(CCCCCCN2CN(CC(=O)O)CSC2=S)C1 | 1.2 | 8.33 µM | 11 µM | 0.73 µM | 11.4 | 7.07 µM | 0.8
11 | NC(=O)CCC(C(=O)O)N1CSC(=S)N(CCCCCCN2CN(C(CCC(N)=O)C(=O)O)CSC2=S)C1 (stereo unspecified) |  | 52 µM | 11 µM | 9.37 µM | 5.8 | > 49 µM | 4.7
12 | O=C(O)CC(C(=O)O)N1CSC(=S)N(CCCCCCN2CN(C(CC(=O)O)C(=O)O)CSC2=S)C1 (stereo unspecified) |  | 76.3 µM | 23.2 µM | 3.6 µM |  | 30.2 µM | 0.9
13 | O=C(O)CCCCN1CSC(=S)N(CCCCCCN2CN(CCCCC(=O)O)CSC2=S)C1 | 2.4 | 16.1 µM | 16.9 µM | 0.36 µM | 44.4 | 6.47 µM | 1
14 | O=C(O)C(Cc1ccccc1)N1CSC(=S)N(CCCCCCN2CN(C(Cc3ccccc3)C(=O)O)CSC2=S)C1 (stereo unspecified) | 1.1 | 5.73 µM | 9.13 µM | 0.73 µM | 7.9 | 5.42 µM | 0.6
